In patent EP4729514A1, “BICYCLIC DERIVATIVE PARP INHIBITOR AND USE THEREOF” (Haisco Pharmaceutical Group Co., Ltd., priority 2023, dated 2024):
Read-outs that look alike come from different tables or passages of the source.

Experiments:
PARP-1 = target: T1, PARP-1 (Homo sapiens, UniProt P09874); experiment: PARP1 enzyme activity assay (FP method, fluorescent probe); format: biochemical
T1 construct: purchased BPS 80501
Description: The inhibition of compounds on PARP1/2 enzyme activity was tested using the FP method. The substrate tracer fluorescent probe (from ICE BIOSCIENCE INC.) in the reaction was prepared in a reaction buffer (50 mM Tris (pH 8.0), 10 mM MgCl2, 150 mM NaCl, 0.001% Triox-100). PARP1/2 (BPS, Cat #80501/80502) was added to the reaction buffer, and gently mixed. The final concentrations of PARP1/2 and the fluorescent probe in the reaction mixture were 5/10 nM and 2.5 nM, respectively. Positive reference Olaparib was serially diluted 3-fold, from an initial concentration of 1 µM, to generate 10 concentration points. 0.1 µL of the compound in 100% DMSO was delivered to a 384-well plate (Corning, 4514) by the acoustic liquid conveyor (Echo 655), and the plate was centrifuged at 1000 rpm for 1 minute; 5 µL of PARP enzyme solution was transferred into the 384-well reaction plate, and the plate was centrifuged at 1000 rpm for 1 minute, and incubated at 25°C for 10 min; 5 µL of substrate solution was transferred into the 384-well reaction plate, and the plate was centrifuged at 1000 rpm for 1 minute, and incubated at 25°C for 60 minutes; finally, the mP signal value of FP (ex/em: 485 nm/520 nm) was read using the fluorescence polarisation module of the BMG PHERAstar FSX. Subsequently, the IC50 value was determined by fitting the data to a four-parameter nonlinear regression curve using GraphPad Prism 8 software. The inhibition rate was calculated according to formula 1, where RLUsample represents the readout of the compound well, RLUmax represents the readout of the solvent control well, and RLUmin represents the readout of the control well without the PARP1/2 enzyme. The IC50 value was determined by fitting the data to a four-parameter curve (log(inhibitor) vs. response -- Variable slope) using GraphPad Prism software. Inhibition% = (1−(RLUsample−RLUmin)/(RLUmax−RLUmin)) × 100% [formula] Table 1 PARP-1 enzyme activity

DLD-1 = DLD-1 cell activity assay (CellTiter-Glo, 7 days); format: cell-based; details: Homo sapiens, 168 h, 7 days incubation; for inhibition at 10 µM: read-out: Max inh.% 10 µM; for IC50: table does not say whether DLD-1 or DLD-1 BRCA2 KO
Description: DLD-1 (150 cells/well/100 µL) (ATCC, CCL-221) and DLD-1 BRCA2 KO (1500 cells/well/100 µL) (from ICE BIOSCIENCE INC.) were inoculated into a 96-well plate (Greiner, 655090) at appropriate cell densities and incubated overnight in a cell incubator at 37°C. The test compound was diluted in the corresponding cell culture medium, and the mixture was added to the well plate and incubated for 7 days. On the fourth day, the medium was replaced with a fresh medium containing the same concentrations of the compounds. The CellTiter-Glo reagent (CTG, Vazyme, DD1101-03) and the culture plate were taken out and returned to room temperature, and then 60 µL of CTG reagent was added to the cells. The plate was then shaken for 2 minutes to ensure complete cell lysis and placed at room temperature for 30 minutes. Luminescence signal values were read using a microplate reader (PHERAstar FSX). The wells containing only culture medium were used as negative controls, and the DMSO-containing wells were used as positive controls. The inhibitory activity percentage of the compounds was normalised using the readings from the negative and positive controls. Calculation formula of inhibition rate: [formula] Table 2 DLD-1 cell activity

[1] = Pharmacokinetic test in rats; format: in vivo, SD rats; details: for Kp at 24 h: brain, 24 h after administration, cell spans the i.v. and i.g. lines, read-out: Brain/Plasma Ratio (24 h); for Kp at 24 h / bioavailability: rat; for pharmacokinetic characteristics in rats: conclusion in words; for AUC(0-t) at 24 h / clearance / Vd: rat plasma; for Vd: read-out: Vdss; for bioavailability: plasma
Description: 4.1. Experimental animals: Male SD rats (about 220 g, 6-8 weeks old, 6 rats/compound) purchased from CHENGDU DOSSY EXPERIMENTAL ANIMALS CO., LTD.
4.2 Experimental design: on the day of the experiment, 12 SD rats were randomly grouped according to their body weights. The animals were fasted with water available for 12-14 h one day before the administration, and were fed 4 h after the administration. Table 4. Administration information
Before and after administration, 0.15 ml of blood was taken from the orbit under isoflurane anaesthesia and placed in an EDTAK2 centrifuge tube. The tube was centrifuged at 5000 rpm at 4°C for 10 min, and plasma was collected. The blood collection time points for the intravenous administration group and intragastric administration group were: 0, 5 min, 15 min, 30 min, 1 h, 2 h, 4 h, 6 h, 8 h and 24 h. The brain tissues were collected 24 hours after the administration, rinsed with cold physiological saline to remove the residual blood on the surface, drained out and then homogenised. Before analysis and detection, all samples were stored at -80°C. The samples were quantitatively analysed by LC-MS/MS. Table 5. Pharmacokinetic parameters of test compounds in plasma of rats

A549 PARP1 KO = experiment: PARP selectivity experiment (pADPr immunofluorescence after H2O2 stimulation), A549 PARP1 KO cells; format: cell-based; details: Homo sapiens, 0.75 h, H2O2 20 mM for 45 minutes
Description: (§1) A549WT, A549 PARP1 KO and A549 PARP2 KO cell lines were inoculated into a 384-well plate at 2500/40 µL/well, and incubated overnight at 37°C with 5% CO2. On the next day, 40 nL of serially diluted compounds were added, and the cells were incubated at 37°C with 5% CO2 for 1 hour. The cells were stimulated by adding 5 µL of H2O2. A549 WT and A549 PARP2 KO were stimulated with a final concentration of 200 µM for 5 minutes, and A549 PARP1 KO was stimulated with a final concentration of 20 mM for 45 minutes. After the stimulation, the supernatant was discarded, and the cells were fixed with 40 µL of pre-cooled methanol in a refrigerator at 4°C for 20 minutes. The cells were washed twice with PBS, and blocked with 20 µL of blocking buffer for 1 hour. A primary antibody mixture (prepared by diluting the pADPr antibody (10H: sc-56198) 1 : 500 in blocking buffer) was added, and the plate was incubated overnight at 4°C. The cells were washed three times with PBST. A secondary antibody mixture (prepared by diluting the goat anti-mouse IgG (H+L) highly cross-adsorbed secondary antibody (Alexa Fluor™ 488) 1 : 500 in blocking buffer) was added, and the plate was incubated at room temperature for 1 hour. The cells were washed three times with PBST, and 20 µL of DAPI solution (1 : 5000 dilution) was added. The plate was incubated at room temperature for 10 minutes before scanning. […]

A549 PARP2 KO = experiment: PARP selectivity experiment (pADPr immunofluorescence after H2O2 stimulation), A549 PARP2 KO cells; format: cell-based
Description: as §1

[2] = PARP-1 enzyme activity, FP method, read-out: IC50

T1 sequence (P09874 whole entry): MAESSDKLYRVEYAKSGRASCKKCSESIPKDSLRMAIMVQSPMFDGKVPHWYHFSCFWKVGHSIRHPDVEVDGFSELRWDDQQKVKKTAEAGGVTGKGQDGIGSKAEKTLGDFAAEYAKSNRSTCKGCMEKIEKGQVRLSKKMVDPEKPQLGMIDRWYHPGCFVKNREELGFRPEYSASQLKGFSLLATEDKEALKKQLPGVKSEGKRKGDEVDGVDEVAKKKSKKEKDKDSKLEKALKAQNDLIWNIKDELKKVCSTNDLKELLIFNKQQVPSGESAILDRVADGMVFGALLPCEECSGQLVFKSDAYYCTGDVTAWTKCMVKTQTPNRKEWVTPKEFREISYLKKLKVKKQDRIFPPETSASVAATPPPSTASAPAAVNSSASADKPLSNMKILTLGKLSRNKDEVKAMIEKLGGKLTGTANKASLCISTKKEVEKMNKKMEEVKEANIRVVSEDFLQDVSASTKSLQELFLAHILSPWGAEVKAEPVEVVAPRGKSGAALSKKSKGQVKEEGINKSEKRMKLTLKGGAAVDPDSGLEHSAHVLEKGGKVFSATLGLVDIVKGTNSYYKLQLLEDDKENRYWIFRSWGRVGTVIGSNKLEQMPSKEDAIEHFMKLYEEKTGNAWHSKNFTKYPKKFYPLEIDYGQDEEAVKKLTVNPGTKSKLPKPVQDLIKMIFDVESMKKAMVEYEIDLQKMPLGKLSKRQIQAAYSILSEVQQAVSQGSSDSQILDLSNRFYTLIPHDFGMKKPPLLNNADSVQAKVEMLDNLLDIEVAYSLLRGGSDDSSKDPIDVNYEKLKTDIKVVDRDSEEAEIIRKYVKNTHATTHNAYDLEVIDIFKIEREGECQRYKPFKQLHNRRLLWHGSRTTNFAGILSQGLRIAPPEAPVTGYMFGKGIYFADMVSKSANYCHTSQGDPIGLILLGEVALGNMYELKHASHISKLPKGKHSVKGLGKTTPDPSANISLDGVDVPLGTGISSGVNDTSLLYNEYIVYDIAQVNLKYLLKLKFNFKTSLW

Row | IC50 (PARP-1; [2]) [nM] | Structure (SMILES) | inhibition at 10 µM (DLD-1) [%] | IC50 (DLD-1) [nM] | IC50 (PARP-1) [nM] | other results
1 | 7.94 | C=C1CC(NC(=O)c2ccc(O[C@H]3CN(Cc4ccc5nc(C)c(=O)[nH]c5c4F)[C@@H]3C)c(F)n2)C1 [Compound 18] |  |  |  | 
2 | 5.63 | CCc1nc2ccc(CN3C[C@H](Oc4ccc(C(=O)NC5CC(=C(F)F)C5)nc4F)[C@H]3C)c(F)c2[nH]c1=O (stereo partly drawn) [Compound 11] |  |  |  | 
3 |  | C=C1CC(NC(=O)c2ccc(O[C@H]3CN(Cc4ccc5nc(CC)c(=O)[nH]c5c4F)[C@@H]3C)c(F)n2)C1 [Compound 8] | 86.7 | 16.8 | 5.42 | Kp at 24 h ([1]; iv): 0.242; pharmacokinetic characteristics in rats [1]: good pharmacokinetic characteristics; AUC(0-t) at 24 h ([1]; iv, i.v. (2.5 mg/kg)): 5720 ± 298 ng·h/mL; clearance ([1]; iv, i.v. (2.5 mg/kg)): 4.36 ± 0.74 mL/min/kg; Vd ([1]; iv, i.v. (2.5 mg/kg)): 0.855 ± 0.16 L/kg; bioavailability ([1]; po, i.g. (10 mg/kg)): 81.9 ± 22%; AUC(0-t) at 24 h ([1]; po, i.g. (10 mg/kg)): 31800 ± 8480 ng·h/mL
4 |  | CCc1nc2ccc(CN3CCN(c4ccc(C(=O)Nc5cnn(C)c5F)nc4F)CC3)c(F)c2[nH]c1=O [Compound 4] | 91.7 | 3.1 | 3.38 | 
5 | 6.39 | CCc1nc2ccc(CN3CCN(c4ccc(C(=O)NC5CC(=C(F)F)C5)nc4F)CC3)c(F)c2[nH]c1=O (stereo not drawn) [Compound 13] |  |  |  | 
6 |  | C=C1CC(NC(=O)c2ccc(N3CCN(Cc4ccc5nc(CC)c(=O)[nH]c5c4F)CC3)c(F)n2)C1 [Compound 10] | 87.6 | 6.96 | 4.55 | 
7 |  | Cn1cc(NC(=O)c2ccc(N3CCN(Cc4ccc5nc(C(F)F)c(=O)[nH]c5c4F)CC3)c(F)n2)c(F)n1 [Compound 2] | 93.1 | 4.67 | 10.8 | IC50 (A549 PARP1 KO): > 5000 nM; IC50 (A549 PARP2 KO; Homo sapiens, 5 min, A549 PARP2 KO cells, H2O2 200 µM for 5 minutes): 0.63 nM; selectivity for PARP1 (A549 PARP2 KO; conclusion in words, from A549 PARP2 KO versus A549 PARP1 KO): good selectivity for PARP1; Kp at 24 h ([1]; iv): 1.03; pharmacokinetic characteristics in rats [1]: good pharmacokinetic characteristics; AUC(0-t) at 24 h ([1]; iv, i.v. (2.5 mg/kg)): 18700 ± 972 ng·h/mL; clearance ([1]; iv, i.v. (2.5 mg/kg)): 2.22 ± 0.11 mL/min/kg; Vd ([1]; iv, i.v. (2.5 mg/kg)): 0.348 ± 0.027 L/kg; bioavailability ([1]; po, i.g. (10 mg/kg)): 66.8 ± 15%; AUC(0-t) at 24 h ([1]; po, i.g. (10 mg/kg)): 50000 ± 11500 ng·h/mL
8 | 12.5 | C=C1CC(NC(=O)c2ccc(N3CCN(Cc4ccc5nc(C(F)F)c(=O)[nH]c5c4F)CC3)c(F)n2)C1 [Compound 7] |  |  |  | 
9 | 10.5 | CCc1nc2ccc(CN3CCN(c4ccc(NC(=O)c5cn(C)nc5F)nc4F)CC3)c(F)c2[nH]c1=O [Compound 6] |  |  |  | 
10 |  | CCc1nc2ccc(CN3CCN(c4ccc(C(=O)Nc5cn(C)nc5F)nc4F)CC3)c(F)c2[nH]c1=O [Compound 1] | 94 | 3.64 | 2.74 | 
11 | 3.14 | Cc1nc2ccc(CN3CCN(c4ccc(C(=O)NC5CC(=C(F)F)C5)nc4F)CC3)c(F)c2[nH]c1=O (stereo not drawn) [Compound 12] |  |  |  | 
12 |  | C=C1CC(NC(=O)c2ccc(N3CCN(Cc4ccc5nc(C)c(=O)[nH]c5c4F)CC3)c(F)n2)C1 [Compound 9] | 81.8 | 7.99 | 3.25 | 
13 |  | Cn1ncc(NC(=O)c2ccc(N3CCN(Cc4ccc5nc(C(F)F)c(=O)[nH]c5c4F)CC3)c(F)n2)c1F [Compound 3] | 91.6 | 4.67 | 10.5 | 
14 | 17.1 | Cn1ncc(C(=O)Nc2ccc(N3CCN(Cc4ccc5nc(C(F)F)c(=O)[nH]c5c4F)CC3)c(F)n2)c1F [Compound 5] |  |  |  | 
